Laboratory results reported in PMC5123075, “Structural and antitrypanosomal data of different carbasones of piperitone” (Data in Brief, 2016).

Tests used:
[1] = test system: Chinese Hamster Ovary (CHO) cells; assay: cytotoxicity assay on CHO cells (Stevigny et al.); type: cell-based; settings: CHO cells
Source text: (§1) The Antitrypanosomal activity, toxicity test, and cytotoxicity assay were done according to Räz et al., Sleet and Brendel and Stevigny et al., respectively.

[2] = cytotoxicity assay on CHO cells (Stevigny et al.); type: cell-based, Chinese Hamster; settings: Chinese Hamster Ovary (CHO) cells; Chinese Hamster Ovary cells; mean±SD of three experiments
Source text: as §1

[3] = test system: Trypanosoma brucei brucei (Tbb); assay: in vitro antitrypanosomal activity (Alamar Blue method of Räz et al.); type: cell-based; settings: for Antitrypanosomal activity, activity (verbal grade): Tbb; for Antitrypanosomal activity, activity (verbal grade) / IC50: in vitro; for IC50: Trypanosoma brucei, concentration providing 50% death of parasites, mean±SD of three experiments; for Selectivity index CHO/tbb: IC50 (CHO) / IC50 (Tbb); for Selectivity index WI38/tbb: IC50 (WI38) / IC50 (Tbb); for Selectivity index LC50/tbb: LC50 (A. salina) / IC50 (Tbb)
Source text: as §1

[4] = test system: human non cancer fibroblast cell line (WI38); assay: cytotoxicity assay on WI38 cells (Stevigny et al.); type: cell-based; settings: for Selectivity index WI38/CHO: IC50 (WI38) / IC50 (CHO), selectivity between the two tested cell lines; for Cytotoxicity WI38, Activity (verbal grade): WI38 cells
Source text: as §1

[5] = cytotoxicity assay on WI38 cells (Stevigny et al.); type: cell-based, human; settings: WI38 non-cancer fibroblast cells; human normal fibroblast cells; mean±SD of three experiments
Source text: as §1

[6] = toxicity test against Artemia salina Leach larvae (Sleet and Brendel); type: in vivo; settings: Artemia salina Leach (larvae), in vivo; concentration providing 50% death of larvae; mean±SD of three experiments
Source text: as §1

[7] = test system: Artemia salina (Leach) larvae; assay: as above; type: in vivo; settings: larvae
Source text: as §1

Row | Compound | Cytotoxicity CHO, Activity (verbal grade) [1] | IC50 [2] [µM] | Antitrypanosomal activity, activity (verbal grade) [3] | IC50 [3] [µM] | Selectivity index WI38/CHO [4] | Cytotoxicity WI38, Activity (verbal grade) [4] | IC50 [5] [µM] | LC50 [6] [µM] | Toxicity against A. salina Leach, Activity (verbal grade) [7] | Selectivity index CHO/tbb [3] | Selectivity index WI38/tbb [3] | Selectivity index LC50/tbb [3]
1 | CC1=C/C(=N\NC(=O)Nc2ccccc2)C(C(C)C)CC1 (stereo not drawn) [compound 3, piperitone 4-phenyl semicarbazone] | Moderate | 65.9 ± 4.8 | trypanocidal | 8.63 ± 0.81 | 1.23 | Not cytotoxic | 81 ± 9.15 | 85.5 ± 2.28 | Not toxic | – | – | –
2 | CC1=C/C(=N\NC(N)=S)C(C(C)C)CC1 (stereo not drawn) [compound 2, piperitone thiosemicarbazone] | Cytotoxic | 21.2 ± 1.37 | moderate | 74.6 ± 4.44 | 6.78 | Not cytotoxic | 143 ± 4.89 | 86.7 ± 2.33 | Not toxic | 0.28 | 1.92 | 1.16
3 | CC1=C/C(=N\NC(N)=O)C(C(C)C)CC1 (stereo not drawn) [compound 1, piperitone semicarbazone] | Not toxic | 214 ± 7.56 | low | 478 ± 7.19 | 2.25 | Not cytotoxic | 481 ± 6.69 | 373 ± 6.6 | Not toxic | 0.45 | 1.01 | 0.78
4 | CC1=C/C(=N\NC(=S)Nc2ccccc2)C(C(C)C)CC1 (stereo not drawn) [compound 4, piperitone 4-phenyl thiosemicarbazone] | Moderate | 65.3 ± 4.02 | trypanocidal | 10.9 ± 2.52 | 2.05 | Not cytotoxic | 134 ± 5.45 | 32.2 ± 1.66 | Toxic | 6.00 | 12.30 | 2.96
